Measured values taken from patent publication US20250163037A1, “SUBSTITUTED ISOXAZOLINE DERIVATIVES” (BASF SE, priority 2022, published 2025).
Where two headings read alike, the source gives them in different places.

Tests used:
Format in all cases: in vivo
[1] = tested on: Orchid Thrips (Dichromothrips corbetti); assay: B.6 Orchid Thrips, floral-immersion technique; conditions: for B.6, 10 ppm: comparative experiment, test B.6 (percent mortality), unit not given; for mortality at 300 ppm: read-out: mortality in comparison with untreated controls
Procedure: Dichromothrips corbetti adults used for bioassay were obtained from a colony maintained continuously under laboratory conditions. For testing purposes, the test compound was diluted in a 1:1 mixture of acetone:water (vol:vol), plus Kinetic at a rate of 0.01% v/v.
Thrips potency of each compound was evaluated by using a floral-immersion technique. Each orchid petal was dipped into treatment solution and allowed to dry in Petri dishes. Treated petals were placed into individual re-sealable plastic along with about 20 adult thrips. All test arenas were held under dark condition and a temperature of about 28° C. for duration of the assay. The percent mortality was recorded 72 hours after treatment.

[2] = tested on: Green Peach Aphid (Myzus persicae); assay: B.2 Green Peach Aphid (mixed life stages), systemic artificial diet under membrane; conditions: 72 h, read-out: mortality in comparison with untreated controls
Description: For evaluating control of Green Peach Aphid through systemic means the test unit consisted of 96-well-microtiter plates containing liquid artificial diet under an artificial membrane. The compounds were formulated using a solution containing 75% v/v water and 25% v/v DMSO. Different concentrations of formulated compounds were pipetted into the aphid diet, using a custom-built pipette, at two replications. After application, 5-8 adult aphids were placed on the artificial membrane inside the microtiter plate wells. The aphids were then allowed to suck on the treated aphid diet and incubated at about 23±1° C. and about 50±5% relative humidity for 3 days. Aphid mortality and fecundity was then visually assessed.

[3] = tested on: Diamond Back Moth (Plutella xylostella); assay: B.5 Diamond Back Moth, cabbage leaf disc dip; conditions: for B.5, 10 ppm: comparative experiment, test B.5 (mortality), unit not given; for mortality at 300 ppm: Plutella xylostella, foliar, 3rd instar larvae, 72 hours after treatment, read-out: mortality in comparison with untreated controls
Procedure: The active compound was dissolved at the desired concentration in a mixture of 1:1 (vol:vol) distilled water:acetone. Surfactant (Kinetic) was added at a rate of 0.01% (vol/vol). The test solution was prepared at the day of use. Cabbage leaf discs (60 mm in diameter) were dipped in test solution and air-dried. Treated leaves were placed in petri dishes lined with moistened filter paper and inoculated with ten 3rd instar larvae. Mortality was recorded 72 hours after treatment. Feeding damages were also recorded using a scale of 0-100%.

[4] = tested on: Yellow Fever Mosquito (Aedes aegypti); assay: whole plant or invertebrate; conditions: 48 h, larval mortality after 2 days, read-out: mortality in comparison with untreated controls
Procedure: For evaluating control of Yellow Fever Mosquito, the test unit consisted of 96-well-microtiter plates containing 200 μl of tap water per well and 5-15 freshly hatched A. aegypti larvae. The active compounds were formulated using a solution containing 75% (v/v) water and 25% (v/v) DMSO. Different concentrations of formulated compounds or mixtures were sprayed onto the insect diet at 2.5 μl, using a custom-built micro atomizer, at two replications.
After application, microtiter plates were incubated at 28±1° C., 80±5% RH for 2 days. Larval mortality was then visually assessed.

[5] = tested on: Tobacco Budworm (Heliothis virescens); assay: B.3 Tobacco Budworm, microtiter plate with insect diet and eggs; conditions: 120 h, egg and larval mortality after 5 days, read-out: mortality in comparison with untreated controls
Procedure: For evaluating control of Tobacco Budworm, the test unit consisted of 96-well-microtiter plates containing an insect diet and 15-25 H. virescens eggs. The compounds were formulated using a solution containing 75% v/v water and 25% v/v DMSO. Different concentrations of formulated compounds were sprayed onto the insect diet at 10 μl, using a custom-built micro atomizer, at two replications. After application, microtiter plates were incubated at about 28±1° C. and about 80±5% relative humidity for 5 days. Egg and larval mortality was then visually assessed.

[6] = tested on: Southern Armyworm (Spodoptera eridania); assay: B.7 Southern Armyworm, 2nd instar larvae, sprayed lima bean plants; conditions: 96 h, 4 days after treatment, read-out: mortality in comparison with untreated controls
Procedure: The active compounds were formulated by a Tecan liquid handler in 100% cyclohexanone as a 10′000 ppm solution supplied in tubes. The 10′000 ppm solution was serially diluted in 100% cyclohexanone to make interim solutions. These served as stock solutions for which final dilutions were made by the Tecan in 50% acetone:50% water (v/v) into 10 or 20 ml glass vials. A nonionic surfactant (Kinetic®) was included in the solution at a volume of 0.01% (v/v). The vials were then inserted into an automated electrostatic sprayer equipped with an atomizing nozzle for application to plants/insects. Lima bean plants (variety Sieva) were grown 2 plants to a pot and selected for treatment at the 1st true leaf stage. Test solutions were sprayed onto the foliage by an automated electrostatic plant sprayer equipped with an atomizing spray nozzle. The plants were dried in the sprayer fume hood and then removed from the sprayer. Each pot was placed into perforated plastic bags with a zip closure. Ten to 11 armyworm larvae were placed into the bag and the bags zipped closed. Test plants were maintained in a growth room at about 25° C. and about 20-40% relative humidity for 4 days, avoiding direct exposure to fluorescent light (14:10 light:dark photo-period) to prevent trapping of heat inside the bags. Mortality and reduced feeding were assessed 4 days after treatment, compared to untreated control plants.

[7] = tested on: Boll Weevil (Anthonomus grandis); assay: B.1 Boll weevil, microtiter plate with insect diet and eggs; conditions: 120 h, egg and larval mortality after 5 days, read-out: mortality in comparison with untreated controls
Procedure: For evaluating control of boll weevil, the test unit consisted of 96-well-microtiter plates containing an insect diet and 5-10 A. grandis eggs.
The compounds were formulated using a solution containing 75% v/v water and 25% v/v DMSO. Different concentrations of formulated compounds were sprayed onto the insect diet at 5 μl, using a custom-built micro atomizer, at two replications.
After application, microtiter plates were incubated at about 25±1° C. and about 75±5% relative humidity for 5 days. Egg and larval mortality were then visually assessed.

[8] = tested on: Silverleaf Whitefly (Bemisia argentifoli); assay: B.8 Silverleaf Whitefly (adults), sprayed cotton plants; conditions: 72 h, 3 days after treatment, read-out: mortality in comparison with untreated controls
Procedure: The active compounds were formulated by a Tecan liquid handler in 100% cyclohexanone as a 10,000-ppm solution supplied in tubes. The 10,000-ppm solution was serially diluted in 100% cyclohexanone to make interim solutions. These served as stock solutions for which final dilutions were made by the Tecan in 50% acetone:50% water (v/v) into 5 or 10 ml glass vials. A nonionic surfactant (Kinetic®) was included in the solution at a volume of 0.01% (v/v). The vials were then inserted into an automated electrostatic sprayer equipped with an atomizing nozzle for application to plants/insects. Cotton plants at the cotyledon stage (one plant per pot) were sprayed by an automated electrostatic plant sprayer equipped with an atomizing spray nozzle. The plants were dried in the sprayer fume hood and then removed from the sprayer. Each pot was placed into a plastic cup and about 10 to 12 whitefly adults (approximately 3-5 days old) were introduced. The insects were collected using an aspirator and a nontoxic Tygon® tubing connected to a barrier pipette tip. The tip, containing the collected insects, was then gently inserted into the soil containing the treated plant, allowing insects to crawl out of the tip to reach the foliage for feeding. Cups were covered with a reusable screened lid. […] Mortality was assessed 3 days after treatment, compared to untreated control 5 plants.

[9] = 300 ppm, adult thrips, 72 hours after treatment
[10] = 2500 ppm, aphid mortality after 3 days

`N#Cc1ccc(NC2=NOC(c3cc(Cl)cc(Cl)c3)(C(F)(F)F)C2)cc1-n1cncn1` (stereo not drawn) [I-1] was tested, and the “B.6, 10 ppm” value [1] was 100, the mortality at 300 ppm [1, 9] was ≥ 75% and the mortality at 2500 ppm [2, 10] was ≥ 75%. For the same compound, the “B.5, 10 ppm” value [3] was 100, the mortality at 300 ppm [3] was ≥ 75% and the mortality at 2500 ppm [4] was ≥ 75%. For the same compound, the mortality at 2500 ppm [5] was ≥ 75%, the mortality at 300 ppm [6] was ≥ 75% and the mortality at 2500 ppm [7] was ≥ 75%.
In the case of `N#Cc1ccc(NC2=NOC(c3cc(Cl)c(F)c(Cl)c3)(C(F)(F)F)C2)cc1-n1cncn1` (stereo not drawn) [I-4, 4-[[5-(3,5-dichloro-4-fluoro-phenyl)-5-(trifluoromethyl)-4H-isoxazol-3-yl]amino]-2-(1,2,4-triazol-1-yl)benzonitrile], the mortality at 300 ppm [1, 9] is reported as ≥ 75%.
In the case of `Fc1c(Cl)cc(C2(C(F)(F)F)CC(Nc3ccc(Cl)c(-n4cc(C(F)(F)F)cn4)c3)=NO2)cc1Cl` (stereo not drawn) [I-14, N-[4-chloro-3-[4-(trifluoromethyl)pyrazol-1-yl]phenyl]-5-(3,5-dichloro-4-fluoro-phenyl)-5-(trifluoromethyl)-4H-isoxazol-3-amine], the mortality at 300 ppm [1, 9] is reported as ≥ 75% and the mortality at 300 ppm [8] is reported as ≥ 75%.
For `Fc1c(Cl)cc(C2(C(F)(F)F)CC(Nc3ccc(Cl)c(-n4cnc(C(F)(F)F)c4)c3)=NO2)cc1Cl` (stereo not drawn) [I-16, N-[4-chloro-3-[4-(trifluoromethyl)imidazol-1-yl]phenyl]-5-(3,5-dichloro4-fluoro-phenyl)-5-(trifluoromethyl)-4H-isoxazol-3-amine], the mortality at 300 ppm [1, 9] was ≥ 75%.
In the case of `O=C(NCC(F)(F)F)c1cnn(-c2cc(NC3=NOC(c4cc(Cl)c(F)c(Cl)c4)(C(F)(F)F)C3)ccc2Cl)c1` (stereo not drawn) [I-18, 1-[2-chloro-5-[[5-(3,5-dichloro-4-fluoro-phenyl)-5-(trifluoromethyl)-4H-isoxazol-3-yl]amino]phenyl]-N-(2,2,2-trifluoroethyl)pyrazole-4-carboxamide], the mortality at 300 ppm [1, 9] is reported as ≥ 75%.
For `CCN(C1=NOC(c2cc(Cl)c(F)c(Cl)c2)(C(F)(F)F)C1)c1ccc(C#N)c(-n2cncn2)c1` (stereo not drawn) [I-20, 4-[[5-(3,5-dichloro-4-fluoro-phenyl)-5-(trifluoromethyl)-4H-isoxazol-3-yl]-ethyl-amino]-2-(1,2,4-triazol-1-yl)benzonitrile], the mortality at 300 ppm [1, 9] was ≥ 75%.
With `COCN(C1=NOC(c2cc(Cl)c(F)c(Cl)c2)(C(F)(F)F)C1)c1ccc(Cl)c(-n2cc(C(F)(F)F)cn2)c1` (stereo not drawn) [I-23, N-[4-chloro-3-[4-(trifluoromethyl)pyrazol-1-yl]phenyl]-5-(3,5-dichloro-4-fluoro-phenyl)-N-(methoxymethyl)-5-(trifluoromethyl)-4H-isoxazol-3-amine] the mortality at 300 ppm [1, 9] was ≥ 75%, the mortality at 300 ppm [3] was ≥ 75% and the mortality at 300 ppm [6] was ≥ 75%.
For `CCOC(=O)N(C1=NOC(c2cc(Cl)c(F)c(Cl)c2)(C(F)(F)F)C1)c1ccc(Cl)c(-n2cnc(C(F)(F)F)c2)c1` (stereo not drawn) [I-26, ethyl N-[4-chloro-3-[4-(trifluoromethyl)imidazol-1-yl]phenyl]-N-[5-(3,5-dichloro-4-fluoro-phenyl)-5-(trifluoromethyl)-4H-isoxazol-3-yl]carbamate], the mortality at 300 ppm ([1]; Thrips, 72 h) was ≥ 75% and the mortality at 2500 ppm [2] was ≥ 75%.
`Fc1c(Cl)cc(C2(C(F)(F)F)CC(Oc3ccc(Cl)c(-n4cncn4)c3)=NO2)cc1Cl` (stereo not drawn) [I-27, 3-[4-chloro-3-(1,2,4-triazol-1-yl)phenoxy]-5-(3,5-dichloro-4-fluoro-phenyl)-5-(trifluoromethyl)-4H-isoxazole] was tested, and the mortality at 300 ppm [1, 9] was ≥ 75%, the mortality at 2500 ppm [2, 10] was ≥ 75% and the mortality at 2500 ppm [4] was ≥ 75%. For the same compound, the mortality at 2500 ppm [5] was ≥ 75%, the mortality at 300 ppm [6] was ≥ 75% and the mortality at 2500 ppm [7] was ≥ 75%.
`N#Cc1ccc(C2=NOC(c3cc(Cl)cc(Cl)c3)(C(F)(F)F)C2)cc1-n1cncn1` [WO2011/073444 Table 3937, No. D-539, reference compound] was tested, and the “B.6, 10 ppm” value [1] was 0 and the “B.5, 10 ppm” value [3] was 0.
For `N#Cc1cnn(-c2cccc(C3=NOC(c4cc(Cl)cc(Cl)c4)(C(F)(F)F)C3)c2)c1` (stereo not drawn) [WO2011/073444 Table C.1, No. I-4, reference compound], the “B.6, 10 ppm” value [1] was 0 and the “B.5, 10 ppm” value [3] was 0.
